# Measured values reported in ChEMBL document CHEMBL1201862, “PubChem BioAssay data set” (2004).
# Calls of active or inactive are those of the source.
# How the values were obtained:
# [1] = biological target: DNA repair and recombination protein RAD54-like (Homo sapiens, UniProt Q92698); test: RAD54 Holliday junction migration blockers – biochemical, fluorescence, cherry-picked samples, dose series, confirmation (AID 651657); format: functional
# [2] = biological target: T1, DNA repair protein RAD52 homolog (Homo sapiens, UniProt P43351); format: functional, biochemical
# T1 sequence (P43351 whole entry): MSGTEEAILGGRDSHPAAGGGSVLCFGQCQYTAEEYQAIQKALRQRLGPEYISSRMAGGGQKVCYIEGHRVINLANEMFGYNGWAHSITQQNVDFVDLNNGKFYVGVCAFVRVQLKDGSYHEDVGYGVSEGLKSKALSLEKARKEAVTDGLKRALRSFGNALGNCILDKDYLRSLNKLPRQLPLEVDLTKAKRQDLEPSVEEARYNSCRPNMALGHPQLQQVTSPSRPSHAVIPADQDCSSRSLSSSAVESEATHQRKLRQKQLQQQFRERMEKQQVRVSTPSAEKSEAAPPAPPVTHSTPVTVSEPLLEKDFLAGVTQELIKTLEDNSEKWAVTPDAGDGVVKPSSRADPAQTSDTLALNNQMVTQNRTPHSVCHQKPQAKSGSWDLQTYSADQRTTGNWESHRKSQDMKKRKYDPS
# Melanocortin receptor 4 = Melanocortin receptor 4 (Homo sapiens, UniProt P32245); format: functional, cell-based;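 also: Cell-based assay with luminescence read-out, confirmatory dose-response testing for agonist activity of biased ligands at MC4R; human U2OS cells with tagged receptor and beta-arrestin; potency of agonists that increase receptor coupling to beta-arrestin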
# Chain of Melanocortin receptor 4 (P32245 whole entry): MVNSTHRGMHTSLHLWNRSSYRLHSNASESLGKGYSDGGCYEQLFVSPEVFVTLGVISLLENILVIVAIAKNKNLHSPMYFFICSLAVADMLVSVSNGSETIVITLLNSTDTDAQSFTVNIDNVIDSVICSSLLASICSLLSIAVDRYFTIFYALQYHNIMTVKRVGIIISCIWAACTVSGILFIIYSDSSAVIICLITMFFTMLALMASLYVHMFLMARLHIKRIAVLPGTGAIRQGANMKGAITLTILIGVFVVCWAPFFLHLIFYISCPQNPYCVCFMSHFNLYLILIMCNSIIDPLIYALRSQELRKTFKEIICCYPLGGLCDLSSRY
# Protein skinhead-1 = biological target: T2, Protein skinhead-1 (Caenorhabditis elegans, UniProt P34707); format: functional
# T2 sequence (P34707 whole entry): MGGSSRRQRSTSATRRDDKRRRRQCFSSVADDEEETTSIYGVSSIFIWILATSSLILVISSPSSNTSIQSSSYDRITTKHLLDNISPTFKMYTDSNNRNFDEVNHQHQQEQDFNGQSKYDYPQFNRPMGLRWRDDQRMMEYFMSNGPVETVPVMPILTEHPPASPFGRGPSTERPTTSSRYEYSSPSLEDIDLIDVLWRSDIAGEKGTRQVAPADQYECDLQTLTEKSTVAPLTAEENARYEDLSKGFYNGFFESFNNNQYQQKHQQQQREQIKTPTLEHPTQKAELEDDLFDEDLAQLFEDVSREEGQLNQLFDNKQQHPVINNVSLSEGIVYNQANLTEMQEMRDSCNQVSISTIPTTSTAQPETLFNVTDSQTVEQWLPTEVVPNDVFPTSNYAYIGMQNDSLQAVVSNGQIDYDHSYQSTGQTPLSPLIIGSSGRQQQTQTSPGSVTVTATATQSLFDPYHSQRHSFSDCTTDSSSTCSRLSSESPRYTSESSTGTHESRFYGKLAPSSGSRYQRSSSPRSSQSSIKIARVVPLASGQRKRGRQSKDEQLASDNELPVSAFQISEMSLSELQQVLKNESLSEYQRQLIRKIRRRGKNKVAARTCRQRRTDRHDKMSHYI
# Interleukin-8 [3] = biological target: T3, Interleukin-8 (Homo sapiens, UniProt P10145); test: Dose Response confirmation of uHTS small molecule hits for cystic fibrosis induced NFkb Inhibitors in a PAF-induced IL8 counterscreen.; format: functional; details: read-out: IC50_Mean
# T3 sequence (P10145 whole entry): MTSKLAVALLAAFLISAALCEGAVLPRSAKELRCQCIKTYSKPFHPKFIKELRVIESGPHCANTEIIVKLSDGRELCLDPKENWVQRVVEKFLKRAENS
# [4] = off-target signal loss in HeLa-CEM21 co-culture – HeLa F-luc CTL cells, cherry-picked, counter-screen for HIV-1 Env fusion inhibitor project, dose response (AID 652040); format: functional, cell-based;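 also: potency for signal decrease marking cytotoxic or nonspecific inhibition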
# [5] = blockers of HIV-1 envelope-mediated cell-cell fusion – cherry-pick, dose response (AID 652057); format: functional, cell-based
# Interleukin-8 [6] = biological target: T3, Interleukin-8; test: Dose Response confirmation of uHTS small molecule hits for cystic fibrosis induced NFkb Inhibitors in a TNFa-induced IL8 counterscreen.; format: functional; details: read-out: IC50_Mean
# [7] = blockers of HIV-1 ZM109 envelope-driven cell-cell fusion – HeLa effector, CEM target cells, luciferase, cherry-pick, dose response (AID 652058); format: functional, cell-based;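 also: luciferase signal from HIV-1 Env mediated cell-cell fusion of effector and target cells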
# [8] = HIV-1 AD8 envelope cell-cell fusion blockers – cherry-pick, dose response (AID 652062); format: functional, cell-based;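 also: luciferase signal from cell-cell fusion driven by HIV-1 clade B AD8 Env; potency is for inhibitors of fusion seen as a drop in luminescence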
# Vero = test: viability loss in Vero cells – cell-based, plate reader, cherry-pick samples, cytotoxicity control, dose response (AID 687020); format: functional; details: Chlorocebus sabaeus
# A549 = test: viability loss in A549 cells – cell-based, plate reader, cherry-pick samples, cytotoxicity control, dose response (AID 687028); format: functional; details: Homo sapiens
# [9] = ATP-based viability loss in HeLa cells – cell-based, CellTiter-Glo luminescence, dry powder, set 2, cytotoxicity control, dose response (AID 720593); format: functional
# Nonstructural protein 1 = Nonstructural protein 1 (Influenza A virus, UniProt Q194T2); format: functional, Influenza A virus (A/California/07/2009(H1N1))
# Chain of Nonstructural protein 1 (Q194T2 whole entry): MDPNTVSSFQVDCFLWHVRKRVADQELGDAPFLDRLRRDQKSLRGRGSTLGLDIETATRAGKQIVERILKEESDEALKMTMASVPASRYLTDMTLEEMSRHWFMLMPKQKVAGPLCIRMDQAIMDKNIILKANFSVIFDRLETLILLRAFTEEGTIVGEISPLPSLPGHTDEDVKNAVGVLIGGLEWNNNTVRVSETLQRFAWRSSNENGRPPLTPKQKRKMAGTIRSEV
# cells = format: functional, cell-based; details: HEK-CNG
# Galanin receptor type 3 = Galanin receptor type 3 (Homo sapiens, UniProt O60755); test: Fluorescence-based cell-based primary high throughput dose response assay to identify antagonists of the Galanin Receptor 3 (GalR3).; format: functional
# Chain of Galanin receptor type 3 (O60755 whole entry): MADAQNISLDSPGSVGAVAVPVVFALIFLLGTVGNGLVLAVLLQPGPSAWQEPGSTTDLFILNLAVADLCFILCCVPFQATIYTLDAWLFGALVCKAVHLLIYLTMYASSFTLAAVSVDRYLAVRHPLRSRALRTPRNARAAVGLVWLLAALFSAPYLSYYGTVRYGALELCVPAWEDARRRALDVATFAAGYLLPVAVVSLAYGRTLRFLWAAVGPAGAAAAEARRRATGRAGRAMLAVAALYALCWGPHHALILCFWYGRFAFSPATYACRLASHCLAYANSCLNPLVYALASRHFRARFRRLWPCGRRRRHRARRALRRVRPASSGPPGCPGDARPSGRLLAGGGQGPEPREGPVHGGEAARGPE
# [10] = biological target: T4, ATP-dependent translocase ABCB1 (Homo sapiens, UniProt P08183); test: P-gp JC-1 efflux blockade concentration-response – Jurkat-DNR cells, flow cytometry, set 2, dose response (AID 504569); format: functional; details: read-out: EC50_MICROM_;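 also: potency of pump inhibitors that raise cellular JC-1 green fluorescence up to the nicardipine level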
# T4 sequence (P08183 whole entry): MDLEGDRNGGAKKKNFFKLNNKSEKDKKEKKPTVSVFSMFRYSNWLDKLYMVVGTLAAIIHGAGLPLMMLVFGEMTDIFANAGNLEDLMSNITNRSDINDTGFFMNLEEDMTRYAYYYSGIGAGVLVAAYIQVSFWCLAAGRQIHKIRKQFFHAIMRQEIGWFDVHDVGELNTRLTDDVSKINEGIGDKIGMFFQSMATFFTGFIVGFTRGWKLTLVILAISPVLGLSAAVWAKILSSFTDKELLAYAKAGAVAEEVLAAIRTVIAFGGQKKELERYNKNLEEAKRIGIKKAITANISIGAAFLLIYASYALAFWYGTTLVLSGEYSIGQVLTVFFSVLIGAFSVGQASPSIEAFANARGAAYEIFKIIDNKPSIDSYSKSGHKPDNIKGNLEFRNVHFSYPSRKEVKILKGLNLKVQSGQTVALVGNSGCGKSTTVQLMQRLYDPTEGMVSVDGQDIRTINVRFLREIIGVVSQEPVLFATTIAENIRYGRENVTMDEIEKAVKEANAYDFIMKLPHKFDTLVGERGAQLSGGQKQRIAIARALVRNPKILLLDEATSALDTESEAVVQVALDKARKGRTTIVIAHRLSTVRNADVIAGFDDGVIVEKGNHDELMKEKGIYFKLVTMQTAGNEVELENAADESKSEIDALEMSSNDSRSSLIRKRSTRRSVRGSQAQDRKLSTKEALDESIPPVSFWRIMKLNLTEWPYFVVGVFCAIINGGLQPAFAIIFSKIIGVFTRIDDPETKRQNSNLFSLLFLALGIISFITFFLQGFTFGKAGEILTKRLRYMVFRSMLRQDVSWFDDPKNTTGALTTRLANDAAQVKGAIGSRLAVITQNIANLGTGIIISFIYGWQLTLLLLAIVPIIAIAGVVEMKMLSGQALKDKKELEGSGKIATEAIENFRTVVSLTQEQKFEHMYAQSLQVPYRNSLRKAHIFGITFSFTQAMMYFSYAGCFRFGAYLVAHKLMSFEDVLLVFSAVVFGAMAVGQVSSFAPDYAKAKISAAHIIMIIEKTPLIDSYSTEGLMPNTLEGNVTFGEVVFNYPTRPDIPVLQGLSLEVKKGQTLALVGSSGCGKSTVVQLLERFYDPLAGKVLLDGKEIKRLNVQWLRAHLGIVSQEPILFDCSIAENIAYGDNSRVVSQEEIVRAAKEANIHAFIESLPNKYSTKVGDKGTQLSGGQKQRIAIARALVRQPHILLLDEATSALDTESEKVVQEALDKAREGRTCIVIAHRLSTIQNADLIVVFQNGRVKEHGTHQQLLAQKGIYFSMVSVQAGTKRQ
# [11] = biological target: T4, ATP-dependent translocase ABCB1; test: inhibition of BCRP-mediated JC-1 efflux – Ig-MXP3 cells, flow cytometry, set 2, dose response (AID 504566); format: functional; details: read-out: EC50_MICROM_;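 also: flow cytometry median green fluorescence of retained JC-1 dye; potency of efflux pump inhibition measured as rising substrate retention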
# [12] = biological target: T5, Eukaryotic translation initiation factor 2-alpha kinase 3 (Homo sapiens, UniProt Q9NZJ5); test: Counterscreen assay for PERK inhibitors: Dose response cell-based high throughput screening assay to measure inhibition of PERK at 6 hours. [Related pubchem assays: 1522, 1416 ]; format: functional
# T5 sequence (Q9NZJ5 whole entry): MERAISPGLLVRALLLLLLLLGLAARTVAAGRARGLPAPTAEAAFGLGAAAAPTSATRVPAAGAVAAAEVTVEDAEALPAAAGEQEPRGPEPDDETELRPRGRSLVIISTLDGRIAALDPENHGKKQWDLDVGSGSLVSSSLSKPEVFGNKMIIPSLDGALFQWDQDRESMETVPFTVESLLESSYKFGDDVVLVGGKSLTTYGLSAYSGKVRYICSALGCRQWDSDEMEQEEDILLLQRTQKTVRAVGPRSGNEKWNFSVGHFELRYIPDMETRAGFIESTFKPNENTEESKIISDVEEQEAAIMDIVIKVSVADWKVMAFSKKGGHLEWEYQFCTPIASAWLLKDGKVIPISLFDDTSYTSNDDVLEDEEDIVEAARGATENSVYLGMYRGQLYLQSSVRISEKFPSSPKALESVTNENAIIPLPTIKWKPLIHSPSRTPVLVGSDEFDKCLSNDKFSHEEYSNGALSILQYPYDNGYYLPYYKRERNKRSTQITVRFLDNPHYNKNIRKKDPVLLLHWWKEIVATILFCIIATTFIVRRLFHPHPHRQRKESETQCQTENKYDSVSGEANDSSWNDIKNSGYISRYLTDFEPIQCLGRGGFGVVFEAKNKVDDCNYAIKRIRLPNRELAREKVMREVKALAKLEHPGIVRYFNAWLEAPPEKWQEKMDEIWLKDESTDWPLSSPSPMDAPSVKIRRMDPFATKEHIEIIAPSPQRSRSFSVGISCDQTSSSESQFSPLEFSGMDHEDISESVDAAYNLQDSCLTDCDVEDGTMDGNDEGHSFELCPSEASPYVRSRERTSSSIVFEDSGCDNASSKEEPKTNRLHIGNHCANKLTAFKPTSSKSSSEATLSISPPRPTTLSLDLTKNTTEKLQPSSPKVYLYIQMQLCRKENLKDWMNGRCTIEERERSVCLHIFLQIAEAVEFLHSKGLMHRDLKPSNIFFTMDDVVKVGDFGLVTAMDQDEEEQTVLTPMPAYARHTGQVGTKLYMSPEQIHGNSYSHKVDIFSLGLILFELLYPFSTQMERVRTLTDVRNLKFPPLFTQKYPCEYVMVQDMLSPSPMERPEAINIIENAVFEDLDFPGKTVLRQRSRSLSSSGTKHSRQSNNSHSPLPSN
# INS1 = test: INS-1E survival protection against cytokine death – cell-based, luminescence, retest, dose response (AID 449756); format: functional; details: Rattus norvegicus;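 also: cell death triggered by IL-1 beta plus TNF-alpha plus IFN-gamma mixture; protective hits raise ATP signal compared with cytokine alone wells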
# [13] = biological target: T5, Eukaryotic translation initiation factor 2-alpha kinase 3; test: Dose response cell-based high-throughput screening assay to measure PERK inhibition. [Related pubchem assays: 1416 ]; format: functional
# [14] = biological target: Photoreceptor-specific nuclear receptor (Homo sapiens, UniProt Q9Y5X4); format: functional, cell-based;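 also: CHO-S cells with Gal4-NCOR and VP16-NR2E3 two-hybrid luciferase reporter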
# Chain of Photoreceptor-specific nuclear receptor (Q9Y5X4 whole entry, the tested form may be a part): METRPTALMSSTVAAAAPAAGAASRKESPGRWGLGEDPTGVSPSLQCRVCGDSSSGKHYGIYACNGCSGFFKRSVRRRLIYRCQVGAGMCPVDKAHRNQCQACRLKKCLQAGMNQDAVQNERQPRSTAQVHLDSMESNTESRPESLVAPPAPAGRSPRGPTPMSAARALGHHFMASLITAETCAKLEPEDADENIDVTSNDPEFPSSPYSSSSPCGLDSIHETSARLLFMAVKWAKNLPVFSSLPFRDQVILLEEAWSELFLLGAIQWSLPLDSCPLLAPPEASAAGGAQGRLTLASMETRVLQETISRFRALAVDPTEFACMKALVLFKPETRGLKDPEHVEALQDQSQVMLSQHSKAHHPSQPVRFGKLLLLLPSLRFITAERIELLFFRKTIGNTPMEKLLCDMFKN
# Chain of DNA repair and recombination protein RAD54-like (Q92698 whole entry): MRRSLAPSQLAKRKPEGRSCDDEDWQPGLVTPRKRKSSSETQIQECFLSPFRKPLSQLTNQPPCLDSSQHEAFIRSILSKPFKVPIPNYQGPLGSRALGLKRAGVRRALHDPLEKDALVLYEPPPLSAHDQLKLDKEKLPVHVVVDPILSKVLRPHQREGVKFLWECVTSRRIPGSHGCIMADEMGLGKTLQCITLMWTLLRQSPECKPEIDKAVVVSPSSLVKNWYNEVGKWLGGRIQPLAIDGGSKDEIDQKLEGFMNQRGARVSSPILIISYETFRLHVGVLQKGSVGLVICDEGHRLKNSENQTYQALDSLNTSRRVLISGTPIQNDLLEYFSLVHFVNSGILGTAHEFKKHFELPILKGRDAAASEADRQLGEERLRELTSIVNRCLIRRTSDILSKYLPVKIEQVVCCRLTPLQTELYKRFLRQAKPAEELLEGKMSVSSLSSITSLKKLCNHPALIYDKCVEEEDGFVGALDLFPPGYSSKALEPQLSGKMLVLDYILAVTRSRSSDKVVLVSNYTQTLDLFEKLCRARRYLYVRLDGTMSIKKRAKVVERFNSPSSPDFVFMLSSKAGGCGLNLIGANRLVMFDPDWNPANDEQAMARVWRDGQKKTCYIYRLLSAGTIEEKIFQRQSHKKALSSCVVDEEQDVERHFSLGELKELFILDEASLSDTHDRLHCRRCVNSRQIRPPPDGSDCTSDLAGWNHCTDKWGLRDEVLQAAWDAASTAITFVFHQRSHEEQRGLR
smiles,measurement,setting,value
CN(C)CCNC(=O)c1cccc(-c2cnc3c(NC=O)cc(-c4cccc(F)c4)cn23)c1,AC50,[1],22.4 µM (active)
same,AC50,[2],5.99 µM (active)
CC(C)CC(N)c1csc(Nc2ccc(C(F)(F)F)cn2)n1 (configuration not stated),EC50,Melanocortin receptor 4,> 89.2 µM (inactive)
CC1(Cc2ccc(Cl)cc2)C(=O)Nc2ccc(-c3cccnc3)cc21 (configuration not stated),IC50,Protein skinhead-1,19.5 µM (active)
same,IC50,Interleukin-8 [3],15.6 µM (inactive)
same,AC50,[4],6.69 µM (active)
same,AC50,[5],1.96 µM (active)
same,IC50,Interleukin-8 [6],41.1 µM (inactive)
same,AC50,[7],4.18 µM (active)
same,AC50,[8],3.3 µM (active)
Nc1nc2ccccc2n1Cc1ccc(Cl)c(Cl)c1,AC50,Vero,1.28 µM (active)
same,AC50,A549,2.82 µM (active)
c1ccc(-c2n[nH]c(-c3ccncc3)n2)nc1,AC50,[9],> 52 µM (inactive)
same,IC50,Nonstructural protein 1,9.19 µM (active)
CCNCC(O)c1cccc(O)c1 (configuration not stated) [ETILEFRINE],EC50,cells,> 30 µM (inactive)
same,IC50,Galanin receptor type 3,1.33 µM (active)
Cc1ccc(-c2cc3nc(-c4ccccc4)cc(N4CCN(C(=O)c5ccoc5)CC4)n3n2)cc1,EC50,[10],0.66 µM (active)
same,EC50,[11],0.81 µM (active)
CCC1(OC(=O)CN)C(=O)OCc2c1cc1n(c2=O)Cc2cc3ccccc3nc2-1 (configuration not stated),EC50,[12],> 55.7 µM (not active)
same,AC50,INS1,2.25 µM (active)
same,EC50,[13],> 55.7 µM (not active)
same,IC50,[14],1.23 µM (active)
